The values below come from US20080306019A1, “Dopamine Receptor Agonists in the Treatment and Prevention of Hiv-Induced Dementia” (priority 2005, published 2008).

Data set [1] relates to rat hippocampal neurons. Kind of data set: Intracellular ROS production (DCF fluorescence) in rat hippocampal neuronal cultures. Format: cell-based. The procedure: Neuronal cultures were incubated with 10 μM H2DCFDA (Molecular Probes, Eugene, Oreg.) for 60 min at 37° C. in PBS.
No decrease in neuronal viability occur-red in cell cultures subjected to Tat alone or Tat+cocaine after 2 hours of treatment.

The subject of a further data set is human fetal neurons. The procedure:
Culture of Human Brain Cells: Neuronal cultures were prepared as described previously (Magnuson D S, et al. Ann Neurol 1995, 37: 373-380; Nath A, et al. J Virol 1996, 70: 1475-1480; New D, et al. J Neurovirol 1997, 3: 168-173). Human fetal brain specimens of gestational age 12-14 weeks were obtained with the consent of women opting for elective termination of pregnancy. Protocols were carried out with strict adherence to the guidelines of the National Institutes of Health (NIH) and with approval from the University of Kentucky Institutional Review Board. Briefly, after mechanical dissociation, the cells were suspended in Opti-MEM with 5% heat-inactivated fetal bovine serum, 0.2% N2 supplement and 1% antibiotic solution (penicillin G sodium 104 units/ml, streptomycin sulfate 10 μg/ml and amphotericin-B 25 μg/ml) (GIBCO). The cells were maintained in culture flasks at 37° C. in a humidified atmosphere of 5% CO2 and 95% air for at least a month. At least 3 days before the experiment was performed the cells were plated in flat bottom 96 well plates coated with poly-d-lysine. Sample cultures were stained for the neuron-specific enolase, microtubule-associated protein-2, synaptophysin, and glial fibrillary astrocytic protein (GFAP). […] Sample cultures were further characterized for the presence of ER-α and ER-β and dopaminergic neurons.
Neurotoxicity Assay: At the time of the experimental treatment, the culture media was replaced with Locke's buffer containing (in mM) 154 NaCl, 5.6 KCl, 2.3 CaCl2, 1 MgCl2, 3.6 NaHCO3, 5 glucose, 5 N-2-hydroxyethylpiperazine-N′2-ethanesulfonic acid (HEPES) and 1% antibiotic solution (penicillin G sodium 104 units/ml, streptomycin sulfate 10 μg/ml and amphotericin-B 25 μg/ml) (pH 7.2). […] To replicate the stereoisomer specific neuroprotective properties of estrogen, the cultures were treated with either […] (10 nM), or 17α-E2 (10 nM) immediately preceding addition of the HIV proteins plus cocaine. To investigate the neuroprotective properties of other gonadal steroids, the cells were treated with various concentrations of PROG or T, immediately followed by exposure to the HIV proteins plus cocaine. […] Various concentrations of cholesterol were used as treatment prior to incubation with the HIV proteins plus cocaine to further characterize the nature of gonadal steroid neuroprotection. ICI-182,780, DMSO (10 nM), β-cyclodextrin (100 nM) and ethanol (10 nM) were also tested for neurotoxic/protective effects. ICI-182,780 and 17α-E2 were solvated in DMSO. […], T, PROG and cholesterol were β-cyclodextrin encapsulated to provide water solubility. Ethanol was used to solvate DHT. Tat1-72 was produced as indicated above, whereas gp120 was a gift from Chiron Corporation. The ICI-182,780 compound was obtained from Tocris Cookson, Inc. (Ellisville, Mo.). All other chemical agents were supplied by Sigma Chemicals (St. Louis, Mo.). At the end of the incubation period neuronal death was assessed by trypan blue (Sigma) exclusion assay as described previously (Vongher J and Frye C. Pharmacol Biochem Behav 1999, 64: 777-785; Magnuson D S, et al. Ann Neurol 1995, 37: 373-380; Nath A, et al. J Virol 1996, 70: 1475-1480).

The conditions of data set [2]: cited from earlier work.
For data set [3], the system named is rat hippocampal neurons. The data set can be described thus: Protein carbonyl immunoreactivity in rat hippocampal cell cultures. To be noted: 48-hrs treatment.
Setting [4] is: repeated daily dosing in rat (Robinson et al. 1994).

Regarding `COC(=O)[C@H]1[C@@H](OC(=O)c2ccccc2)C[C@@H]2CC[C@H]1N2C.Cl` [cocaine, Cocaine hydrochloride], the “intracellular ROS production, cocaine + Tat vs Tat alone” value with rat hippocampal neurons [1] (1.6 μM cocaine + 50 nM Tat, 2 hours) is on record as “increased intracellular ROS production relative to cultures treated with 50 nM Tat alone”. The “difference in DCF fluorescence, Tat+cocaine vs Tat” value in the data set with rat hippocampal neurons [1] (48 hours of treatment) was “not significant”. The “DCF fluorescence, cocaine alone” value in the data set with rat hippocampal neurons [1] (cocaine alone) is recorded as “did not cause changes in DCF fluorescence”. Besides, the “toxicity of HIV proteins combined with cocaine” value in the data set on human fetal neurons (Tat 40 nM + gp120 32.5 pM + cocaine 1.6 μM) is “synergistic neurotoxicity”. Besides, in the data set on human fetal neurons (substance alone, 15 hours), the “toxicity alone vs Locke's buffer” value is “Neither the HIV proteins, Tat plus gp120, nor cocaine alone were more toxic than the Locke's buffer control”. For the same compound, the “time to peak arterial plasma levels” value in data set [2] (3.0 mg/kg/injection IV (Booze et al. 1997)) was “within one-minute”. In data set [2] (IV 3.0 mg/kg, rats (Booze et al., 1997)), the t1/2 in plasma is 12 to 13 min. In addition, in data set [2] (setting [4]), the “fetal brain levels of cocaine” value is 1750 ± 250 ng/mL and the “fetal plasma levels of cocaine” value is 500 ng/mL. The “levels of protein oxidation, Tat + cocaine vs Tat alone” value with rat hippocampal neurons [3] was “higher than in cultures treated with just Tat alone”.
